# Laboratory results reported in PMC12007089, “Applying Isothermal Titration Calorimetry and Saturation Transfer Difference-NMR to Study the Mode of Interaction of Flavan-3-ols with α-Amylase to Understand Their Impact on Starch Hydrolysis” (Journal of Agricultural and Food Chemistry, 2025).
# Read-outs that look alike come from different tables or passages of the source.
# Tests used:
# [1] = target: T1, porcine pancreatic α-amylase (Sus scrofa, UniProt P00690); experiment: Continuous α-amylase activity assay (starch hydrolysis) by ITC; type: biochemical; conditions: for IC50: calculated according to the Cheng–Prussoff equation (eq 8) for a 1 M substrate
# T1 sequence (P00690 16-511): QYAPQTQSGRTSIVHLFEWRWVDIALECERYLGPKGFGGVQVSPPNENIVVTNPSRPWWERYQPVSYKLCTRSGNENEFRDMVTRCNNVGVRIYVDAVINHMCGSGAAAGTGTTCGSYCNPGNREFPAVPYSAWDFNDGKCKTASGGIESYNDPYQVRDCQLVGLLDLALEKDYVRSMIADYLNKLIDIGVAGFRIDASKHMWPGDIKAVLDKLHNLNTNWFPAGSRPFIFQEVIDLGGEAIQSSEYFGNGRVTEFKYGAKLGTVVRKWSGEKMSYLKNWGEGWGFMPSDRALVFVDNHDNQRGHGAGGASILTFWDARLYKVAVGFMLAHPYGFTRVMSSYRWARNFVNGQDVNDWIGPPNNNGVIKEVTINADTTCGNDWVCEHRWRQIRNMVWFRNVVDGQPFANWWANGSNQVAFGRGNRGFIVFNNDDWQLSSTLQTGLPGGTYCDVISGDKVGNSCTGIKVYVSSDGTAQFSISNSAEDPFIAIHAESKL
# Method: Without rebuffering, α-amylase was diluted each day with 0.1 M phosphate buffer/0.04 M NaCl to a final dilution of 1:1000 and stored at 4 °C. […] The starch solution was prepared daily, according to the protocol recommended by Brodkorb et al. with some modifications.[37],[38]
# The starch suspension in 0.1 M phosphate buffer/0.04 M NaCl was heated for 5 min under vigorous stirring. After cooling to room temperature, the solution was diluted to a final mass concentration of 40.5 g/L (equivalent to 250 mM based on the molecular weight of the glucose monomers). The concentration of starch is typically expressed as a percentage by weight (%, w/v) due to the inherent polydispersity of the molecule, which is influenced by the source of the natural starch, the manufacturing process, and the preparation of the sample.[28],[39] However, the calculation of inhibition constants requires the use of molarities.
# Control experiments were performed with 12 nM α-amylase in 0.1 M phosphate buffer/0.04 M NaCl placed in the sample cell at 310 K, and various volumes (1–10 μL) of starch solution were recurrently injected up to three times with an injection interval of 1600 s. It was elucidated that the optimal volume for reaching the maximal turnover velocity (vmax) was 5 μL. Prior to measurement, α-amylase was incubated with the flavan-3-ols for 60 min at 277 K to ensure that adsorption equilibrium has been reached. This was compulsory as the time required for the ITC system to reach equilibrium and to start measurement varied considerably (10–25 min). To confirm α-amylase stability, controls without an inhibitor were performed at the beginning and the end of each day.
# The release of heat during the conversion of starch was monitored, and calculations were performed using Microsoft Excel software. The detected thermal power is directly proportional to the enzymatic rate (v0) (eq 1 and 2).[40],[41] [drawing 1] 1 [drawing 2] 2
# The heat rate (dQ/dt) is obtained as a function of time (t) and provides information about the conversion rate (ν). The reaction enthalpy (ΔRHapp) is calculated by integrating the heat peak over its entire extent and dividing the result by the number of substrate molecules converted by the enzyme (eq 3). The substrate concentration at time t ([S]t) is calculated according to eq 4. [drawing 3] 3 [drawing 4] 4
# The Michaelis–Menten constant (Km) is defined as the substrate concentration at the time (t0.5) when the reaction rate reaches half-maximum (vmax) (eq 5). [drawing 5] 5
# Thus, the thermogram provides all information to calculate inhibition constants. While competitive inhibition (Kic, eq 6) is based on the formation of an enzyme–inhibitor complex (EI), the uncompetitive inhibition (Kiu, eq 7) refers to the binding of a ternary enzyme–substrate–inhibitor complex (ESI). [drawing 6] 6 [drawing 7] 7
# The maximal conversion rate vmax and the Michaelis–Menten constant Km are calculated from the control experiments in the absence of an inhibitor. In the presence of an inhibitor [I], the apparent values of [drawing 8] and [drawing 9] have been determined.
# The inhibitor concentration that is required to reduce the conversion rate to 50% (IC50) depends on the substrate concentration [S] and is calculated according to the Cheng–Prussoff equation (eq 8).[42] [drawing 10] 8
# [2] = target: T1, porcine pancreatic α-amylase; experiment: Interaction studies by isothermal titration calorimetry (ITC); type: binding
# Method: Isothermal titration calorimetry was performed using an Affinity ITC LV with a cell volume of 182 μL (TA Instruments, Eschborn, Germany). Interaction experiments were recorded at 298 K with 0.1 mM rebuffered α-amylase in the sample cell and 4 mM flavan-3-ols in the injection syringe. For each ligand, experiments were performed with 25 injections of 3 μL and a spacing of 200 s between injections. Experiments were carried out in duplicates. Additional measurements were conducted in buffer to ensure that any mixing effects were negligible and that the observed heat development was solely attributed to the interaction studied (S4). In particular, at higher phenolic concentrations, endothermic peaks were observed, arising from the dilution effect.
# The data analysis for the interaction studies was conducted using software NanoAnalyze, with manual integration of the peaks. To correct the data for noninteraction-related heats, the mean heat released during the final three injections was subtracted as a constant blank. This procedure is an effective estimation strategy that minimizes errors during the fitting process, provided that the protein is fully saturated.[35] The data were fitted using the “independent” model. To prevent overparametrization, n was set to 1, while Ka and ΔH were maintained as variables, as recommended for low-affinity binding.[35],[36] The stability of the ligand at room temperature was ensured by monitoring the concentrations prior to and following the experiment (S5).
# [3] = 100 μM flavan-3-ol, 310 K, initial injection, control 727 ± 103
# [4] = 100 µM flavan-3-ol, inj. 2, read-out: Kic
# [5] = 100 µM flavan-3-ol, inj. 2, read-out: Kiu
# [6] = 100 µM flavan-3-ol, inj. 3, read-out: Kic
# [7] = 100 µM flavan-3-ol, inj. 3, read-out: Kiu
# [8] = competitive inhibition constant, 100 μM flavan-3-ol, 310 K, initial injection (inj. 1), read-out: Kic
# [9] = relative to control, 100 μM flavan-3-ol, 12 nM α-amylase, starch, 310 K, initial injection (inj. 1)
# [10] = relative to control, 100 μM flavan-3-ol, 310 K, initial injection
# [11] = uncompetitive inhibition constant, 100 μM flavan-3-ol, 310 K, initial injection (inj. 1), read-out: Kiu
# [12] = 0.1 mM α-amylase, 4 mM flavan-3-ol, phosphate buffer, 298 K, n set to 1
# [13] = 0.1 mM α-amylase, 4 mM flavan-3-ol, phosphate buffer, 298 K, n set to 1, read-out: Kd
# [14] = phosphate buffer, 298 K, n set to 1
# [15] = ITC, values as restated in the discussion
# [16] = PC C1 concentrations of ∼105 μM, 310 K
Structure (SMILES),"α(Kic/Kiu) ([1]; 100 μM flavan-3-ol, 310 K)","ΔRHapp [1, 3]","vmax ([1]; 100 µM flavan-3-ol, inj. 2)","Ki [1, 4]","Ki [1, 5]","vmax ([1]; 100 µM flavan-3-ol, inj. 3)","Ki [1, 6]","Ki [1, 7]",IC50 [1],"Ki [1, 8]","vmax [1, 9]","(dQ/dt)max [1, 10]","Ki [1, 11]","Ka [2, 12]","Kd [2, 13]","ΔG [2, 14]","ΔH [2, 14]","ΔS [2, 14]","Ka [2, 15]",further results
"Oc1cc(O)c2c(c1)O[C@H](c1ccc(O)c(O)c1)[C@@H](O)C2 [CAT, (+)-Catechin]",0.8 ± 0.4,0.162 ± 0.0335 kcal/mol,78±5%,447 ± 151 µM,403 ± 134 µM,79±2%,458 ± 152 µM,399 ± 54 µM,431 ± 217 µM,356 ± 209 µM,79 ± 6%,80 ± 13%,431 ± 217 µM,2.1±0.0 10^3 M^-1,500 µM,-4.54 ± 0 kcal/mol,-12.7 ± 1.1 kcal/mol,–,–,–
"Oc1cc(O)c2c(c1)O[C@H](c1ccc(O)c(O)c1)[C@H](O)C2 [EC, (−)-Epicatechin]",0.7 ± 0.1,0.195 ± 0.0127 kcal/mol,77±5%,305 ± 162 µM,389 ± 41 µM,76±3%,291 ± 80 µM,330 ± 52 µM,–,–,78 ± 4%,82 ± 8%,–,–,300 µM,-4.78 ± 0.048 kcal/mol,-17.2 ± 1.67 kcal/mol,-173±24 J/mol·K,–,"Kd ([2]; Ka, 0.1 mM α-amylase, 4 mM flavan-3-ol, phosphate buffer, 298 K, n set to 1): 263 µM"
"Oc1cc(O)c2c(c1)O[C@H](c1ccc(O)c(O)c1)[C@H](O)[C@H]2c1c(O)cc(O)c2c1O[C@H](c1ccc(O)c(O)c1)[C@@H](O)C2 [PC B1, procyanidin B1]",0.7 ± 0.2,0.156 ± 0.0229 kcal/mol,65±8%,216 ± 65 µM,208 ± 78 µM,70±1%,539 ± 86 µM,240 ± 14 µM,–,155 ± 79 µM,66 ± 9%,66 ± 14%,–,1.1±0.1 10^3 M^-1,900 µM,-4.06 ± 0.024 kcal/mol,-5.26 ± 0.359 kcal/mol,-16±5 J/mol·K,1100 M^–1,–
"Oc1cc(O)c2c(c1)O[C@H](c1ccc(O)c(O)c1)[C@H](O)[C@H]2c1c(O)cc(O)c2c1O[C@H](c1ccc(O)c(O)c1)[C@H](O)C2 [PC B2, procyanidin B2]",1.0 ± 0.1,0.205 ± 0.00789 kcal/mol,62±6%,188 ± 34 µM,195 ± 57 µM,61±7%,202 ± 73 µM,165 ± 49 µM,–,–,62 ± 4%,56 ± 4%,–,0.9±0.1 10^3 M^-1,1100 ± 100 µM,-4.06 ± 0.048 kcal/mol,-1.9 ± 0.096 kcal/mol,31±1 J/mol·K,900 M^–1,–
"Oc1cc(O)c2c(c1)O[C@H](c1ccc(O)c(O)c1)[C@H](O)[C@H]2c1c(O)cc(O)c2c1O[C@H](c1ccc(O)c(O)c1)[C@H](O)[C@H]2c1c(O)cc(O)c2c1O[C@H](c1ccc(O)c(O)c1)[C@H](O)C2 [PC C1, procyanidin C1]",0.9 ± 0.1,0.143 ± 0.00789 kcal/mol,50±5%,143 ± 56 µM,102 ± 19 µM,59±2%,395 ± 78 µM,145 ± 14 µM,103 ± 16 µM,–,50 ± 4%,44 ± 4%,103 ± 16 µM,–,–,–,–,–,–,"reduction in α-amylase activity ([1]; 100 μM PC C1): 50%; (dQ/dt)max [1, 16]: 23 ± 0%; ΔRHapp [1, 16]: 0.0406 ± 0.01 kcal/mol; vmax ([1]; PC C1 concentrations of ∼105 μM, 310 K, value printed in brackets): (98 ± 21) %; interaction with α-amylase observed by ITC ([2]; 0.1 mM α-amylase, 4 mM ligand, 298 K): no observable interaction"
